Molecules are shown by their SMILES. pIC50: −log10 of the molar value. Where only a bound is given, the exact number is not on record here.

One may read the pIC50 as −log10 of the IC50, conventionally taken in molar units.

Assay [1] has as its target T1, human IR (hIR) (Homo sapiens, UniProt P06213).
T1 construct: containing amino acid residues 979-1382 of human IR; made in house; host or cells: Sf9 cells (baculovirus), same process as hIGF1R
Description: TR-FRET kinase assay of purified hIR. Particulars: activated hIR 0.5 nM, 10 μM ATP, values given as pIC50 category. In kind it is biochemical. Background: Time-resolved FRET reads energy transfer from a long-lived donor to a nearby acceptor.

Assay [2] relates to NCI-H929. Description: Inhibition of cell proliferation (CellTiter-Glo or InCell analyzer), NCI-H929. It counts as cell-based. Particulars: Homo sapiens, 72 h / 3 days, values given as IC50 category. Put shortly: In one
(Cellular ATP, detected with luciferase, serves as a proxy for viable cell number.)

T1 sequence (P06213 979-1382): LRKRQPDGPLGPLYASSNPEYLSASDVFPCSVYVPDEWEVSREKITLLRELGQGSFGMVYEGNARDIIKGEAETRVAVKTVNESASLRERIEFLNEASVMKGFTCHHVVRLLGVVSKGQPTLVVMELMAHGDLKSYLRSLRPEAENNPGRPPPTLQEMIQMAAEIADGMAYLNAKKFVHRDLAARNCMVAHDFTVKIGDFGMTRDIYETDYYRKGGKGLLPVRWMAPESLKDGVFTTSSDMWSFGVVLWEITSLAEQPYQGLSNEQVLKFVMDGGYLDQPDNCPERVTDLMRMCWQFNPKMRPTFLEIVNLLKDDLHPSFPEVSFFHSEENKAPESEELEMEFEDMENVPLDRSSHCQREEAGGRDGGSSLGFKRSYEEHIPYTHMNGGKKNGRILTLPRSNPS

Take `COc1cc(N2CCCN(S(C)(=O)=O)CC2)ccc1Nc1nc(Nc2cccc(F)c2C(N)=O)c2cc[nH]c2n1` [Example 207, 2-fluoro-6-{[2-({2-(methyloxy)-4-[4-(methylsulfonyl)hexahydro-1H-1,4-diazepin-1-yl]phenyl}amino)-1H-pyrrolo[2,3-d]pyrimidin-4-yl]amino}benzamide]: the results for the pIC50 in assay [1] and in assay [2] were 6.80 to 8.30 and 6.00 to 6.60, respectively.

On to `COc1cc(N2CCN(C(C)C)CC2)ccc1Nc1nc(Nc2ccccc2C(N)=O)c2cc[nH]c2n1` [Example 7, 2-[(2-{[4-[4-(1-methylethyl)-1-piperazinyl]-2-(methyloxy)phenyl]amino}-1H-pyrrolo[2,3-d]pyrimidin-4-yl)amino]benzamide], for which the figures for the negative logarithm of the IC50 (pIC50) in assay [1] and in assay [2] were 9.00 to 9.60 and > 6.60, respectively.

As for `COc1cc2c(cc1Nc1nc(Nc3cccc(F)c3C(N)=O)c3cc[nH]c3n1)NCCC2` [Example 211, 2-fluoro-6-[(2-{[6-(methyloxy)-1,2,3,4-tetrahydro-7-quinolinyl]amino}-1H-pyrrolo[2,3-d]pyrimidin-4-yl)amino]benzamide], the results for the pIC50 in assay [1] and in assay [2] were 6.80 to 8.30 and < 6.00, respectively.

For the molecule `COc1cc(OCCN2CCN(C)CC2)ccc1Nc1nc(Nc2cccc(F)c2C(N)=O)c2cc[nH]c2n1` [Example 203, 2-fluoro-6-({2-[(2-(methyloxy)-4-{[2-(4-methyl-1-piperazinyl)ethyl]oxy}phenyl)amino]-1H-pyrrolo[2,3-d]pyrimidin-4-yl}amino)benzamide], the values for the pIC50 in assay [1] and in assay [2] were 8.40 to 8.90 and > 6.60, respectively.

In the case of `CNC(=O)c1c(F)cccc1Nc1nc(Nc2cc3c(cc2OC)CCN(C(C)C)C3)nc2[nH]ccc12` [Example 235, 2-fluoro-N-methyl-6-[(2-{[2-(1-methylethyl)-6-(methyloxy)-1,2,3,4-tetrahydro-7-isoquinolinyl]amino}-1H-pyrrolo[2,3-d]pyrimidin-4-yl)amino]benzamide], the negative logarithm of the IC50 (pIC50) is 8.40 to 8.90 in assay [1] and > 6.60 in assay [2].

As to `COc1cc2c(cc1Nc1nc(Nc3cccc(F)c3C(N)=O)c3cc[nH]c3n1)N(C(=O)CCN(C)C)CC2` [Example 118, 2-[(2-{[1-(N,N-dimethyl-b-alanyl)-5-(methyloxy)-2,3-dihydro-1H-indol-6-yl]amino}-1H-pyrrolo[2,3-d]pyrimidin-4-yl)amino]-6-fluorobenzamide], the pIC50 is 6.80 to 8.30 in assay [1] and > 6.60 in assay [2].

With `COc1cc2c(cc1Nc1nc(Nc3cccc(F)c3C(N)=O)c3cc(C)[nH]c3n1)N(C(=O)CN(C)C)CC2` [Example 262, 2-[(2-{[1-(N,N-dimethylglycyl)-5-(methyloxy)-2,3-dihydro-1H-indol-6-yl]amino}-6-methyl-1H-pyrrolo[2,3-d]pyrimidin-4-yl)amino]-6-fluorobenzamide], the figures for the negative-log IC50 (pIC50) in assay [1] and in assay [2] were 6.80 to 8.30 and < 6.00, respectively.

Consider `CCCN1CCC=C(c2ccc(Nc3nc(Nc4ccccc4C(N)=O)c4cc[nH]c4n3)c(OC)c2)C1` [Example 2, 2-[(2-{[2-(methyloxy)-4-(1-propyl-1,2,5,6-tetrahydro-3-pyridinyl)phenyl]amino}-1H-pyrrolo[2,3-d]pyrimidin-4-yl)amino]benzamide], for which the pIC50 in assay [1] was 9.00 to 9.60; in assay [2], > 6.60.

Turning to `COc1cc2c(cc1Nc1nc(Nc3cccc(F)c3C(N)=O)c3cc[nH]c3n1)CN(CCCN(C)C)CC2` [Example 232, 2-[(2-{[2-[3-(dimethylamino)propyl]-6-(methyloxy)-1,2,3,4-tetrahydro-7-isoquinolinyl]amino}-1H-pyrrolo[2,3-d]pyrimidin-4-yl)amino]-6-fluorobenzamide], the negative-log IC50 (pIC50) was 8.40 to 8.90 in assay [1] and > 6.60 in assay [2].

Turning to `COc1cc(N2CCN(S(C)(=O)=O)CC2)ccc1Nc1nc(Nc2cccc(F)c2C(N)=O)c2cc[nH]c2n1` [Example 204, 2-fluoro-6-{[2-({2-(methyloxy)-4-[4-(methylsulfonyl)-1-piperazinyl]phenyl}amino)-1H-pyrrolo[2,3-d]pyrimidin-4-yl]amino}benzamide], the pIC50 was 8.40 to 8.90 in assay [1] and > 6.60 in assay [2].

As for `CCCN(CCC)[C@@H](C)C(=O)N1CCc2cc(OC)c(Nc3nc(Nc4cccc(F)c4C(=O)NC)c4cc[nH]c4n3)cc21` [Example 191, 2-[(2-{[1-(N,N-dipropyl-L-alanyl)-5-(methyloxy)-2,3-dihydro-1H-indol-6-yl]amino}-1H-pyrrolo[2,3-d]pyrimidin-4-yl)amino]-6-fluoro-N-methylbenzamide], the negative logarithm of the IC50 (pIC50) in assay [1] is 6.80 to 8.30; in assay [2], < 6.00.

For the molecule `COCC(=O)N1CCc2cc(OC)c(Nc3nc(Nc4cccc(F)c4C(N)=O)c4cc[nH]c4n3)cc21` [Example 149, 2-fluoro-6-{[2-({5-(methyloxy)-1-[(methyloxy)acetyl]-2,3-dihydro-1H-indol-6-yl}amino)-1H-pyrrolo[2,3-d]pyrimidin-4-yl]amino}benzamide], the pIC50 in assay [1] was 6.80 to 8.30; in assay [2] it was 6.00 to 6.60.

Take `COc1cc2c(cc1Nc1nc(Nc3cc(Cl)cc(F)c3C(N)=O)c3cc[nH]c3n1)N(C(=O)CN(C)C)CC2` [Example 119, 4-chloro-2-[(2-{[1-(N,N-dimethylglycyl)-5-(methyloxy)-2,3-dihydro-1H-indol-6-yl]amino}-1H-pyrrolo[2,3-d]pyrimidin-4-yl)amino]-6-fluorobenzamide]: the negative logarithm of the IC50 (pIC50) was 9.00 to 9.60 in assay [1] and > 6.60 in assay [2].

In the case of `COc1cc2c(cc1Nc1nc(Nc3cccc(F)c3C(N)=O)c3cc[nH]c3n1)N(C(=O)CCN(C)C)CCC2` [Example 214, 2-[(2-{[1-(N,N-dimethyl-β-alanyl)-6-(methyloxy)-1,2,3,4-tetrahydro-7-quinolinyl]amino}-1H-pyrrolo[2,3-d]pyrimidin-4-yl)amino]-6-fluorobenzamide], the negative logarithm of the IC50 (pIC50) was 6.80 to 8.30 in assay [1] and > 6.60 in assay [2].

With `CCN(C)CC(=O)N1CCc2cc(OC)c(Nc3nc(Nc4cccc(F)c4C(=O)NC)c4cc[nH]c4n3)cc21` [Example 165, 2-[(2-{[1-(N-ethyl-N-methylglycyl)-5-(methyloxy)-2,3-dihydro-1H-indol-6-yl]amino}-1H-pyrrolo[2,3-d]pyrimidin-4-yl)amino]-6-fluoro-N-methylbenzamide], the pIC50 was 6.80 to 8.30 in assay [1] and 6.00 to 6.60 in assay [2].

In the case of `CCN(C)CC(=O)N1CCCc2cc(OC)c(Nc3nc(Nc4cccc(F)c4C(=O)NC)c4cc[nH]c4n3)cc21` [Example 132, 2-[(2{-[1-(N-ethyl-N-methylglycyl)-6-(methyloxy)-1,2,3,4-tetrahydro-7-quinolinyl]amino}-1H-pyrrolo[2,3-d]pyrimidin-4-yl)amino]-6-fluoro-N-methylbenzamide], the pIC50 is 8.40 to 8.90 in assay [1] and > 6.60 in assay [2].

As for `CNC(=O)c1c(F)cccc1Nc1nc(Nc2cc3c(cc2OC)CCCN3C(=O)CCN(C)C)nc2[nH]ccc12` [Example 213, 2-[(2-{[1-(N,N-dimethyl-β-alanyl)-6-(methyloxy)-1,2,3,4-tetrahydro-7-quinolinyl]amino}-1H-pyrrolo[2,3-d]pyrimidin-4-yl)amino]-6-fluoro-N-methylbenzamide], the negative logarithm of the IC50 (pIC50) in assay [1] was 6.80 to 8.30; in assay [2] it was 6.00 to 6.60.

With `COc1cc2c(cc1Nc1nc(Nc3cccc(F)c3C(N)=O)c3cc[nH]c3n1)N(C(=O)[C@@H]1CCCN1C)CC2` [Example 147, 2-fluoro-6-[(2-{[5-(methyloxy)-1-(1-methyl-L-prolyl)-2,3-dihydro-1H-indol-6-yl]amino}-1H-pyrrolo[2,3-d]pyrimidin-4-yl)amino]benzamide], the pIC50 in assay [1] is 8.40 to 8.90; in assay [2], > 6.60.

Turning to `CNC(=O)c1c(F)cc(F)cc1Nc1nc(Nc2cc3c(cc2OC)CCN3C(=O)CN(C)C)nc2[nH]ccc12` [Example 190, 2-[(2-{[1-(N,N-dimethylglycyl)-5-(methyloxy)-2,3-dihydro-1H-indol-6-yl]amino}-1H-pyrrolo[2,3-d]pyrimidin-4-yl)amino]-4,6-difluoro-N-methylbenzamide], the negative logarithm of the IC50 (pIC50) is 9.00 to 9.60 in assay [1] and > 6.60 in assay [2].

Take `CNC(=O)c1c(F)cccc1Nc1nc(Nc2cc3c(cc2OC)CCCN3C(=O)[C@@H]2CCCN2C)nc2[nH]ccc12` [Example 202, 2-fluoro-N-methyl-6-[(2-{[6-(methyloxy)-1-(1-methyl-L-prolyl)-1,2,3,4-tetrahydro-7-quinolinyl]amino}-1H-pyrrolo[2,3-d]pyrimidin-4-yl)amino]benzamide]: the negative logarithm of the IC50 (pIC50) was 6.80 to 8.30 in assay [1] and > 6.60 in assay [2].

For the molecule `COc1ccc(NC(=O)CN(C)C)cc1Nc1nc(Nc2cccc(F)c2C(N)=O)c2cc[nH]c2n1` [Example 244, 2-[(2-{[5-[(N,N-dimethylglycyl)amino]-2-(methyloxy)phenyl]amino}-1H-pyrrolo[2,3-d]pyrimidin-4-yl)amino]-6-fluorobenzamide], the values for the negative logarithm of the IC50 (pIC50) in assay [1] and in assay [2] were 9.00 to 9.60 and > 6.60, respectively.

`COc1cc2c(cc1Nc1nc(Nc3cccc(F)c3C(N)=O)c3cc[nH]c3n1)CN(C)CC2` [Example 121, 2-fluoro-6-[(2-{[2-methyl-6-(methyloxy)-1,2,3,4-tetrahydro-7-isoquinolinyl]amino}-1H-pyrrolo[2,3-d]pyrimidin-4-yl)amino]benzamide]: the negative logarithm of the IC50 (pIC50) in assay [1] is 8.40 to 8.90; in assay [2], > 6.60.

On to `CCCN(CCC)[C@@H](C)C(=O)N1CCc2cc(OC)c(Nc3nc(Nc4cccc(F)c4C(N)=O)c4cc[nH]c4n3)cc21` [Example 192, 2-[(2-{[1-(N,N-dipropyl-L-alanyl)-5-(methyloxy)-2,3-dihydro-1H-indol-6-yl]amino}-1H-pyrrolo[2,3-d]pyrimidin-4-yl)amino]-6-fluorobenzamide], for which the negative-log IC50 (pIC50) is 8.40 to 8.90 in assay [1] and > 6.60 in assay [2].

Regarding `CCNC(=O)c1c(F)cc(F)cc1Nc1nc(Nc2cc3c(cc2OC)CCCN3C(=O)CN(C)C)nc2[nH]ccc12` [Example 180, 2-[(2-{[1-(N,N-dimethylglycyl)-6-(methyloxy)-1,2,3,4-tetrahydro-7-quinolinyl]amino}-1H-pyrrolo[2,3-d]pyrimidin-4-yl)amino]-N-ethyl-4,6-difluorobenzamide], the pIC50 in assay [1] is 8.40 to 8.90; in assay [2] it was 6.00 to 6.60.

Values taken from patent publication US7981903B2, “2-[2-{phenylamino}-1H-pyrrolo[2,3-D]pyrimidin-4-yl)amino] benzamide derivatives as IGF-1R inhibitors for the treatment of cancer” (GlaxoSmithKline LLC, priority 2007, dated 2011).
